We go through ten compounds from patent US20090042957A1, “Substituted Oxyarenes” (Bayer CropScience AG, priority 2004, published 2009).

What is called logP is the decadic logarithm of the partition coefficient of the neutral form, usually between octanol and water.

Data set [1] relates to Spodoptera frugiperda. Nature of the data set: Spodoptera frugiperda test (spray treatment). The class given is in vivo. The note with it: for Kill rate in % after 7d: active compound concentration 500 g/ha, sprayed corn leaf disks (Zea mays), caterpillars. How it is done: Spodoptera frugiperda Test (Spray Treatment) [table] To produce a suitable preparation of active compound, 1 part by weight of active compound is mixed with the stated amounts of solvents and emulsifier, and the concentrate is diluted with emulsifier-containing water to the desired concentration. Disks of corn leaves (Zea mays) are sprayed with an active compound preparation of the desired concentration and, after drying, populated with caterpillars of the armyworm (Spodoptera frugiperda). After the desired period of time, the effect in % is determined. 100% means that all caterpillars have been killed; 0% means that none of the caterpillars have been killed.

Data set [2] can be described thus: log P (pH 2.3). The data set is classed as physicochemical.
Data set [3] concerns Tetranychus urticae. Nature of the data set: Tetranychus test; OP-resistant (TETRUR spray treatment). The data set is classed as in vivo. To be noted: active compound concentration 100 g/ha, sprayed bean leaf disks (Phaseolus vulgaris), all stages of spider mite. How it is done:
Tetranychus Test; OP-Resistant (TETRUR Spray Treatment)
To produce a suitable preparation of active compound, 1 part by weight of active compound is mixed with the stated amounts of solvents and emulsifier, and the concentrate is diluted with emulsifier-containing water to the desired concentration.
Disks of bean leaves (Phaseolus vulgaris) which are infested by all stages of the greenhouse red spider mite (Tetranychus urticae) are sprayed with an active compound preparation of the desired concentration.
After the desired period of time, the effect in % is determined. 100% means that all spider mites have been killed; 0% means that none of the spider mites have been killed.

Consider `CCn1nnc(-c2ccc(OCCCC3CC(c4cc(OCC=C(Cl)Cl)cc(Cl)c4OC)=NO3)cc2)n1` (stereo not shown), for which the “Kill rate in % after 7d” value in data set [1] is 100%.

For the compound `COc1c(Cl)cc(OCC=C(Cl)Cl)cc1C1=NOC(CCCOc2ccc(N3CCCC3=O)cc2)C1` (stereo not shown), the “Kill rate in % after 7d” value in data set [1] worked out at 100%.

In the case of `CO/N=C/c1ccc(OCCCC2CC(c3cc(OCC=C(Cl)Cl)cc(Cl)c3OC)=NO2)cc1` (stereo not shown), the “Kill rate in % after 7d” value in data set [1] came to 100%.

As to `COc1c(Cl)cc(OCC=C(Cl)Cl)cc1C1=NOC(CCCOc2ccc3c(c2)CCCC3=O)C1` (stereo not shown), the “Kill rate in % after 7d” value in data set [1] was found to be 100%.

Regarding `CCn1nnc(-c2ccc(OCCCC3CC(c4cc(OCC=C(Cl)Cl)cc(Cl)c4OC)=NO3)cc2)n1` (racemic) [Example I-1], in data set [1] (spray treatment, result in words), the “activity in Spodoptera frugiperda test” value is recorded as “good activity”.

The compound `COc1c(Cl)cc(OCC=C(Cl)Cl)cc1-c1nnc(CCCOCc2ccccc2)s1` [2-(3-benzyloxypropyl)-5-[3-chloro-5-(3,3-dichloroallyloxy)-2-methoxyphenyl]-[1,3,4]thiadiazole] gave a logP in data set [2] of 5.67.

Regarding `COc1c(Cl)cc(OCC=C(Cl)Cl)cc1C(=O)NNC(=O)CCCOCc1ccccc1` [3-chloro-5-(3,3-dichloroallyloxy)-2-methoxybenzoic acid N′-(4-benzyloxybutyryl)hydrazide], in data set [2], the log partition coefficient (logP) is 3.79.

Regarding `COc1c(Cl)cc(OCC=C(Cl)Cl)cc1C1=NOC(CCCOc2cccc3c2OC(C)(C)C3)C1` (stereo not shown) [drawing 44], in data set [1], the “Kill rate in % after 7d” value was found to be 100%.

Regarding `COc1c(Cl)cc(OCC=C(Cl)Cl)cc1C1=NOC(CCCOc2cccc3c2OC(C)(C)C3)C1` (stereo not shown) [drawing 46], the “Kill rate in % after 7d” value in data set [3] came out at 90%.

On to `COc1c(Cl)cc(OCC=C(Cl)Cl)cc1C1=NC(CO)CO1` (stereo not shown) [{2-[3-chloro-5-(3,3-dichloroallyloxy)-2-methoxyphenyl]-4,5-dihydrooxazol-4-yl}methanol], for which the lipophilicity (logP) in data set [2] turned out to be 2.05.
